The subject of the test is human C-Myc transcription in MV-4-11 cells. The test is described as follows: Transcription of human C-Myc in human leukemic MV-4-11 cells (QuantiGene 2.0). Format: cell-based. The following applies: inhibition of C-Myc mRNA, 4 hours treatment, read-out: IC50 MV-4-11 Cell. How it is done:
The effect of compounds on transcription of human C-Myc gene is monitored in human B-myelomonocytic leukemia cell line MV-4-11 (from American Type Culture Collection (ATCC), Manassas, Va., USA) using QuantiGene 2.0 assay kit (Affymetrix, Santa Clara, Calif., USA).
Typically, 8,000 MV-4-11 cells are plated in sterile 96-well plates (Costar #3598 from Fisher Scientific Canada, Ottawa, Ontario, Canada) in Iscove's medium supplemented with 10% fetal bovine serum, glutamine (2 mM), and penicillin (100 I.U.) and streptomycin (100 μg/mL) (all from Wisent Inc., St. Bruno, Quebec, Canada). Compounds are dissolved in DMSO at 30 mM. A series of 1:3 dilutions are first made in DMSO, and further 1:100 dilutions are made in serum-containing cell culture media. The final concentration of DMSO is 0.1% in cell culture media. After cells are treated with various concentrations of test compound for 4 hours, cells are lysed using Quantigene 2.0 sample processing kit (# QS0100). C-Myc mRNA is detected using a QuantiGene 2.0 assay kit (# QS0009) with gene-specific probe to human C-Myc (# SA-50182) following the manufacturer's recommendations. Luminescene signals are read on Flexstation II microplate reader (Molecular Devices, Sunnyvale, Calif., USA).

The term IC50 denotes the point on the concentration scale where inhibition reaches its midpoint.

Read-outs that look alike come from different tables or passages of the source.

For the molecule `CO[C@H]1C[C@H](c2nc3ccc(-c4cc(C)c(=O)n(C)c4)cc3n2CCOC(F)(F)F)C1` [Compound 28a], for the setting “Homo sapiens, MV4-11, 4 h”, the IC50 was determined as 50 nM.

On to `COC(C)Cn1c(C2CC2)nc2ccc(-c3cc(C)c(=O)n(C)c3)cc21` (single isomer, unassigned) [Compound 23a, 5-[2-cyclopropyl-3-(2-methoxypropyl)benzimidazol-5-yl]-1,3-dimethylpyridin-2-one], for which the IC50 stood at 250 nM.

Turning to `COC(C)Cn1c(C2CCOCC2)nc2ccc(-c3cc(C)c(=O)n(C)c3)cc21` (single isomer, unassigned) [Compound 35b, 5-[3-(2-methoxypropyl)-2-tetrahydropyran-4-yl-benzimidazol-5-yl]-1,3-dimethyl pyridin-2-one], the IC50 was 86 nM.

`Cc1cc(-c2ccc3nc(C4CCOCC4)n(CC(C)C(F)(F)F)c3c2)cn(C)c1=O` (stereo not shown) [Compound 46a, 1,3-dimethyl-5-(2-(tetrahydro-2H-pyran-4-yl)-1-(3,3,3-trifluoro-2-methylpropyl)-1H-benzo[d]imidazol-6-yl)pyridin-2(1H)-one]: where the note is “Homo sapiens, MV4-11, 4 h”, the IC50 is 220 nM.

With `COC(C)Cn1cnc2ccc(-c3cc(C)c(=O)n(C)c3)cc21` (stereo not shown) [Compound 22a, 5-[3-(2-methoxypropyl)benzimidazol-5-yl]-1,3-dimethylpyridin-2-one], the IC50 (Homo sapiens, MV4-11, 4 h) was 840 nM.

Regarding `Cc1cc(-c2ccc3nc(C4CC4)n(CCOCC(F)(F)F)c3c2)cn(C)c1=O` [Compound 45, 5-(2-cyclopropyl-1-(2-(2,2,2-trifluoroethoxy)ethyl)-1H-benzo[d]imidazol-6-yl)-1,3-dimethylpyridin-2(1H)-one], the IC50 (Homo sapiens, MV4-11, 4 h) came out at 160 nM.

With `CCO[C@@H](C)Cn1c(C2CCOCC2)nc2ccc(-c3cc(C)c(=O)n(C)c3)cc21` [Compound 40, (S)-5-(1-(2-ethoxypropyl)-2-(tetrahydro-2H-pyran-4-yl)-1H-benzo[d]imidazol-6-yl)-1,3-dimethylpyridin-2(1H)-one], the IC50 (Homo sapiens, MV4-11, 4 h) came out at 27 nM.

For the molecule `COC[C@@H](C)n1c(C2CCC(F)(F)CC2)nc2ccc(-c3cc(C)c(=O)n(C)c3)cc21` [Compound 57, (R)-5-(2-(4,4-difluorocyclohexyl)-1-(1-methoxypropan-2-yl)-1H-benzo[d]imidazol-6-yl)-1,3-dimethylpyridin-2(1H)-one], the IC50 (Homo sapiens, MV4-11, 4 h) stood at 72 nM.

For the molecule `CCOCCn1c(C2CCC(F)(F)CC2)nc2ccc(-c3cc(C)c(=O)n(C)c3)cc21` [Compound 61, 5-(2-(4,4-difluorocyclohexyl)-1-(2-ethoxyethyl)-1H-benzo[d]imidazol-6-yl)-1,3-dimethylpyridin-2(1H)-one], the IC50 (Homo sapiens, MV4-11, 4 h) came to 84 nM.

Regarding `COC(C)Cn1cnc2ccc(-c3cc(C)c(=O)n(C)c3)cc21` (stereo not shown) [Compound 22b, 5-[3-(2-methoxypropyl)benzimidazol-5-yl]-1,3-dimethylpyridin-2-one], the IC50 is 780 nM.

On to `COC1CC(c2nc3ccc(-c4cc(C)c(=O)n(C)c4)cc3n2CCOC(C)C)C1` (stereo not shown) [Compound 65, 5-[1-(2-isopropoxyethyl)-2-(3-methoxycyclobutyl)-1H-benzo[d]imidazol-6-yl]-1,3-dimethylpyridin-2(1H)-one], for which the IC50 was found to be 25 nM.

On to `Cc1cc(-c2ccc3nc(C4CCOCC4)n(CCOCC(F)(F)F)c3c2)cn(C)c1=O` [Compound 41, 1,3-dimethyl-5-(2-(tetrahydro-2H-pyran-4-yl)-1-(2-(2,2,2-trifluoroethoxy)ethyl)-1H-benzo[d]imidazol-6-yl)pyridin-2(1H)-one], for which, for the setting “Homo sapiens, MV4-11, 4 h”, the IC50 is 23 nM.

`CO[C@H]1C[C@@H](c2nc3ccc(-c4cc(C)c(=O)n(C)c4)cc3n2CCOC(F)(F)F)C1` [Compound 28b]: under “Homo sapiens, MV4-11, 4 h”, the IC50 came out at 50 nM.

`Cc1cc(-c2ccc3nc([C@H]4CCCO4)n(CCOC(F)(F)F)c3c2)cn(C)c1=O` (stereo in doubt) [Compound 30a, 1,3-dimethyl-5-[2-tetrahydrofuran-2-yl-3-[2-(trifluoromethoxy)ethyl]benzimidazol-5-yl]pyridin-2-one]: where the note is “Homo sapiens, MV4-11, 4 h”, the IC50 was determined as 200 nM.

In the case of `COC(C)Cn1c(C2CCOCC2)nc2ccc(-c3cc(C)c(=O)n(C)c3)cc21` (single isomer, unassigned) [Compound 35a, 5-[3-(2-methoxypropyl)-2-tetrahydropyran-4-yl-benzimidazol-5-yl]-1,3-dimethyl pyridin-2-one], the IC50 turned out to be 180 nM.

Turning to `COCCn1c(C2CCC(F)(F)CC2)nc2ccc(-c3cc(C)c(=O)n(C)c3)cc21` [Compound 44, 5-(2-(4,4-difluorocyclohexyl)-1-(2-methoxyethyl)-1H-benzo[d]imidazol-6-yl)-1,3-dimethylpyridin-2(1H)-one], the IC50 (Homo sapiens, MV4-11, 4 h) worked out at 98 nM.

Turning to `Cc1cc(-c2ccc3nc(C4CCOCC4)n([C@H](C)COC(C)C)c3c2)cn(C)c1=O` [Compound 66, (R)-5-(1-(1-isopropoxypropan-2-yl)-2-(tetrahydro-2H-pyran-4-yl)-1H-benzo[d]imidazol-6-yl)-1,3-dimethylpyridin-2(1H)-one], the IC50 (Homo sapiens, MV4-11, 4 h) turned out to be 18 nM.

In the case of `COC1CC(c2nc3ccc(-c4cc(C)c(=O)n(C)c4)cc3n2CCOC(C)C)C1` (stereo not shown) [Compound 64, 5-[1-(2-isopropoxyethyl)-2-(3-methoxycyclobutyl)-1H-benzo[d]imidazol-6-yl]-1,3-dimethylpyridin-2(1H)-one], the IC50 turned out to be 51 nM.

For the molecule `Cc1cc(-c2ccc3nc(C4CCOC4)n(CCOC(F)(F)F)c3c2)cn(C)c1=O` (single isomer, unassigned) [Compound 29a, 1,3-dimethyl-5-[2-tetrahydrofuran-3-yl-3-[2-(trifluoromethoxy)ethyl]benzimidazol-5-yl]pyridin-2-one], the IC50 is 220 nM.

Consider `CCO[C@@H](C)Cn1c(C2CCC(F)(F)CC2)nc2ccc(-c3cc(C)c(=O)n(C)c3)cc21` [Compound 55, (S)-5-(2-(4,4-difluorocyclohexyl)-1-(2-ethoxypropyl)-1H-benzo[d]imidazol-6-yl)-1,3-dimethylpyridin-2(1H)-one], for which, where the note is “Homo sapiens, MV4-11, 4 h”, the IC50 came to 53 nM.

With `Cn1cc(-c2ccc3nc(C4CC4)n(CCOC(F)(F)F)c3c2)cc(C2CC2)c1=O` [Compound 19, 3-cyclopropyl-5-[2-cyclopropyl-3-[2-(trifluoromethoxy)ethyl]benzimidazol-5-yl]-1-methylpyridin-2-one], under “Homo sapiens, MV4-11, 4 h”, the IC50 was found to be 870 nM.

Take `COC(C)Cn1c(C)nc2ccc(-c3cc(C)c(=O)n(C)c3)cc21` (stereo not shown) [Compound 21b, 5-[3-(2-methoxypropyl)-2-methylbenzimidazol-5-yl]-1,3-dimethylpyridin-2-one]: the IC50 is 590 nM.

For `COC[C@H](C)n1c(C2CC2)nc2ccc(-c3cc(C)c(=O)n(C)c3)cc21` [Compound 17, 5-[2-cyclopropyl-3-[(1S)-2-methoxy-1-methylethyl]benzimidazol-5-yl]-1,3-dimethyl pyridin-2-one], the IC50 (Homo sapiens, MV4-11, 4 h) was 810 nM.

`CCOC[C@H](C)n1c(C2CCOCC2)nc2ccc(-c3cc(C)c(=O)n(C)c3)cc21` [Compound 48, (S)-5-(1-(1-ethoxypropan-2-yl)-2-(tetrahydro-2H-pyran-4-yl)-1H-benzo[d]imidazol-6-yl)-1,3-dimethylpyridin-2(1H)-one]: the IC50 (Homo sapiens, MV4-11, 4 h) came out at 260 nM.

Turning to `CCO[C@H](C)Cn1c(C2CC(F)(F)C2)nc2ccc(-c3cc(C)c(=O)n(C)c3)cc21` [Compound 54, (R)-5-(2-(3,3-difluorocyclobutyl)-1-(2-ethoxypropyl)-1H-benzo[d]imidazol-6-yl)-1,3-dimethylpyridin-2(1H)-one], the IC50 (Homo sapiens, MV4-11, 4 h) stood at 170 nM.

With `COCCn1c(Cc2ccccc2)nc2ccc(-c3cc(C)c(=O)n(C)c3)cc21` [Compound 37, 5-(2-benzyl-1-(2-methoxyethyl)-1H-benzo[d]imidazol-6-yl)-1,3-dimethylpyridin-2(1H)-one], the IC50 (Homo sapiens, MV4-11, 4 h) came out at 490 nM.

Turning to `COCCn1c(C2CCCCC2)nc2ccc(-c3cc(C)c(=O)n(C)c3)cc21` [Compound 38, 5-(2-cyclohexyl-1-(2-methoxyethyl)-1H-benzo[d]imidazol-6-yl)-1,3-dimethylpyridin-2(1H)-one], the IC50 (Homo sapiens, MV4-11, 4 h) came out at 240 nM.

As for `CCOC[C@@H](C)n1c(C2CC(F)(F)C2)nc2ccc(-c3cc(C)c(=O)n(C)c3)cc21` [Compound 52, (R)-5-(2-(3,3-difluorocyclobutyl)-1-(1-ethoxypropan-2-yl)-1H-benzo[d]imidazol-6-yl)-1,3-dimethylpyridin-2(1H)-one], the IC50 (Homo sapiens, MV4-11, 4 h) amounted to 51 nM.

In the case of `Cc1cc(-c2ccc3nc(CC4CCOCC4)n(CCOC(F)(F)F)c3c2)cn(C)c1=O` [Compound 43, 1,3-dimethyl-5-(2-((tetrahydro-2H-pyran-4-yl)methyl)-1-(2-(trifluoromethoxy)ethyl)-1H-benzo[d]imidazol-6-yl)pyridin-2(1H)-one], the IC50 (Homo sapiens, MV4-11, 4 h) amounted to 27 nM.

On to `COC[C@@H](C)n1c(C2CC(F)(F)C2)nc2ccc(-c3cc(C)c(=O)n(C)c3)cc21` [Compound 51, (R)-5-(2-(3,3-difluorocyclobutyl)-1-(1-methoxypropan-2-yl)-1H-benzo[d]imidazol-6-yl)-1,3-dimethylpyridin-2(1H)-one], for which the IC50 (Homo sapiens, MV4-11, 4 h) stood at 62 nM.

Consider `Cc1cc(-c2ccc3nc(C4CCOC4)n(CCOC(F)(F)F)c3c2)cn(C)c1=O` (single isomer, unassigned) [Compound 29b, 1,3-dimethyl-5-[2-tetrahydrofuran-3-yl-3-[2-(trifluoromethoxy)ethyl]benzimidazol-5-yl]pyridin-2-one], for which the IC50 was found to be 77 nM.

The values above are taken from patent US10703740B2, “Substituted benzimidazoles, their preparation and their use as pharmaceuticals” (NEOMED Institute, priority 2015, dated 2020).
